Reference: patent publication US20100015603A1, “Chimeric proteins for measuring atp concentrations in pericellular space and related screening method” (priority 2005, published 2010)

Columns and labels:
pmeLUC = molecular target: T1, pmeLUC (Photinus pyralis, UniProt P08659, N119G/N50D); assay: Response of HEK293-pmeLUC cells to extracellular nucleotides (affinity and selectivity of the pmeLUC probe, luminescence); assay type: cell-based; conditions: HEK293-pmeLUC cells; for sensitivity of pmeLUC to other nucleotides: FIG. 2A
T1 construct: expressed in transfected cells
T1 sequence (P08659 with tags, fused parts or gaps N50D/N119G): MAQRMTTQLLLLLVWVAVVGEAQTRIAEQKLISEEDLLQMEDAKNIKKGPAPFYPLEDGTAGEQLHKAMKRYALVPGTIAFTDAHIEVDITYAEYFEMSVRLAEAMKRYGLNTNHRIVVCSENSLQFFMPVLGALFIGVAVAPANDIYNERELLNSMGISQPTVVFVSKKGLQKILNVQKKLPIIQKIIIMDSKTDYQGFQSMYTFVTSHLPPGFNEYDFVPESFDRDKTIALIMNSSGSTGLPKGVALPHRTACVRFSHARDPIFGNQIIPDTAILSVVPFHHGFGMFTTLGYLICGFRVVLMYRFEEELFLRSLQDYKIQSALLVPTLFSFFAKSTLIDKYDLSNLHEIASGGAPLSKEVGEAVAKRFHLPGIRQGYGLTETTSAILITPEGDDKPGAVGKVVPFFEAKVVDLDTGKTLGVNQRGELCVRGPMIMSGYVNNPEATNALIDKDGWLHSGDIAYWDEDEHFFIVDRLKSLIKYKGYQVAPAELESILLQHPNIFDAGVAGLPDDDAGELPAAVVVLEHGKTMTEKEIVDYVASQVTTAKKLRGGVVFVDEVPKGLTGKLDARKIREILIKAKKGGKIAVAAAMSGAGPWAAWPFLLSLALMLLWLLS
Protocol: (§1) ATP was measured in the custom-made luminometer described by Rizzuto and co-workers (Brini et al., 1999; Jouaville et al., 1999). For experiments, cells were plated onto 13 mm coverslips and were placed in a 37° C. thermostatted chamber (diameter 15 mm, height 2 mm) and perfused with a saline solution supplemented with luciferin at a concentration of 5 μM. The chamber was held in a photomultiplier kept in a dark refrigerated (4° C.) box. Light emission was detected by a Thorn EMI photon counting board installed in an IBM-compatible computer. The board allowed storing of the data in the computer memory for further analysis. During the experiments the thermostatted chamber was continuously perfused with buffer by means of a Gilson peristaltic pump. Alternatively, ATP was measured in the supernatants using soluble luciferase in a Firezyme luminometer as previously described (Baricordi et al., 1999; Solini et al, 2004; Zanovello et al., 1990).
Affinity of pmeLUC for ATP is rather low, with a threshold of about 10 μM, however, subsequent ATP additions elicit further increases in light emission that allow building a calibration curve (FIG. 2B). Importantly, pmeLUC is insensitive to all other nucleotides tested (ADP, UTP, UDP and GTP) (FIG. 2A).

human P2X7R = molecular target: T2, human P2X7R (Homo sapiens, UniProt Q99572); assay: ATP release through the P2X7 receptor in HEK293-hP2X7/pmeLUC cells, pmeLUC luminescence; assay type: cell-based
T2 construct: expressed in transfected cells; host or cells: HEK293 (HEK293-hP2X7/pmeLUC)
T2 sequence (Q99572 1-595): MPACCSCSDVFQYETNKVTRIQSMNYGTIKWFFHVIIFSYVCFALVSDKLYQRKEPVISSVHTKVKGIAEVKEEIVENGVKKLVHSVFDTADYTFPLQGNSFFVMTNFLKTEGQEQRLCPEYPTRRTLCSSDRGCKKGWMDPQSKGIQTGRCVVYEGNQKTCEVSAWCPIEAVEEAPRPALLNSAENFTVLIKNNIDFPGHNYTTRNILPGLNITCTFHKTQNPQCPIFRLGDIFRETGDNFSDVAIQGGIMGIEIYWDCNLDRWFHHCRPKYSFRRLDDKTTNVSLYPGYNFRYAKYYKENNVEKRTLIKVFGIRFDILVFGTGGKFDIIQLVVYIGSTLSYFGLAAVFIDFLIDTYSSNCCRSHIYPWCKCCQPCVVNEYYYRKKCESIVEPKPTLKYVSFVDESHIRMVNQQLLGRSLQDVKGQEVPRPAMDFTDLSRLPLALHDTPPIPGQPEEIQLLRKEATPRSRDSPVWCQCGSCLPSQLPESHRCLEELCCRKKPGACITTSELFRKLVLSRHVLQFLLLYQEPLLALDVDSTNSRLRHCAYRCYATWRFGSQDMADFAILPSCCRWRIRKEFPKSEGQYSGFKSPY
Protocol: (§2) HEK293 cells were cultured in DMEM-F12 (Sigma-Aldrich). Media were supplemented with 10% heat-inactivated FBS, 100 U/ml penicillin and 100 μg/ml streptomycin (Invitrogen corporation, San Giuliano Milanese, Italy). ACN neuroblastoma cells were cultured in DMEM supplemented with MEM non-essential amino acid solution 100× (Sigma-Aldrich). HEK293 cells were transfected with the calcium phosphate method. Cells transiently expressing the pmeLUC construct were assayed 36 hours after transfection. Clones stably expressing pmeLUC or the P2X7R were generated by culture of the transfected cells in the presence of G418 (0.8 mg/ml, added 48 hours after transfection) for 3 weeks. Stable P2X7- or pmeLUC-expressing clones were kept in the continuous presence of 0.2 mg/ml of G418 sulphate (Geneticin) (Calbiochem, la Jolla, Calif.). ACN cells were transfected with pmeLUC by lipofectamine (Invitrogen) and tested 24 hours after transfection. Briefly, cells were incubated in 250 μl serum-free transfection medium (OPTIMEM) in the presence of lipofectamine-plus-DNA (0.4 μg per well). After 3 hours incubation 1 ml of DMEM plus 10% FBS supplemented with MEM non-essential amino acid solution 100× (Sigma-Aldrich) was added. Cells were assayed 24 hours after transfection. In order to allow a high level of plasma membrane expression of the transfected constructs, cells were incubated overnight in the presence of 1 mM DTT (Mezghrani et al, 2001). Furthermore, they were also kept at room temperature (21° C.) for two hours prior to transfer into the thermostated luminometer chamber.
as §1
Early experiments carried out not only by the authors of the present invention had shown that supernatants from cells expressing the P2X7 receptor contained a high level of ATP, which was not due to an accelerated rate of cell lysis (Baricordi et al., 1999; Adinolfi et al., 2003; Solini et al., 2004). […] To test such hypothesis several HEK293 clones were generated stably transfected with the human or rat P2X7R (HEK293-hP2X7 or HEK293-rP2X7, respectively). These clones were then transfected with pmeLUC (HEK293-P2X7/pmeLUC).

[1] = tested on: A549 pulmonary epithelial cells; assay: ATP release / photon emission in A549 pulmonary epithelial cells expressing pmeLUC probe; assay type: cell-based, human; conditions: ATP 5 μM to 1 mM, FIG. 7A
Protocol: (§3) Cells cultured in flasks for cell culture (75 cm^2) were transfected with a vector containing the produced chimeric probe, by transfection techniques more suitable for the cell line under examination. As experimental model established macrophage cells, named J774, and established pulmonary epithelial cells, named […], were used after being transfected with pmeLUC probe using TransFectin (Biorad) that ensure the major percent of positive cells for these cell lines.
(§4) 36 hours after transfection cells were removed from the bottom of flasks for trypsinization. Cell suspension was transferred in a Falcon tube (from 15 to 50 ml) and centrifuged at 1200 rpm at 20° C. and finally cell precipitate was re-suspended in DMEM medium supplemented with DTT (1 mM).
(§5) 50 μl of suspension containing transfected cells (corresponding to about 50.000 cells) were seeded in each well of the plate. Cells were incubated overnight.
(§6) The day after seeding cells were incubated with a saline solution (KRB: Krebs-Ringer modified buffer: 125 mM NaCl, 5 mM KCl, 1 mM Na3PO4, 1 mM MgSO4, 1 mM CaCl2, 5.5 mM glucose, 20 mM HEPES, pH 7.4, 37° C.) supplemented with luciferin (5 μM) and were directly contacted with a photomultiplier measuring photon emission by luciferase.

J774 macrophage cells = assay: ATP release / photon emission in J774 macrophage cells expressing pmeLUC probe; assay type: cell-based, mouse; conditions: ATP 5 μM to 1 mM, FIG. 6A
Protocol: as §3, §4, §5, §6

rat P2X7R = molecular target: T3, rat P2X7R (Rattus norvegicus, UniProt Q64663); assay: ATP release through the P2X7 receptor in HEK293-rP2X7/pmeLUC cells, pmeLUC luminescence; assay type: cell-based
T3 construct: expressed in transfected cells; host or cells: HEK293 (HEK293-rP2X7/pmeLUC)
T3 sequence (Q64663 1-595): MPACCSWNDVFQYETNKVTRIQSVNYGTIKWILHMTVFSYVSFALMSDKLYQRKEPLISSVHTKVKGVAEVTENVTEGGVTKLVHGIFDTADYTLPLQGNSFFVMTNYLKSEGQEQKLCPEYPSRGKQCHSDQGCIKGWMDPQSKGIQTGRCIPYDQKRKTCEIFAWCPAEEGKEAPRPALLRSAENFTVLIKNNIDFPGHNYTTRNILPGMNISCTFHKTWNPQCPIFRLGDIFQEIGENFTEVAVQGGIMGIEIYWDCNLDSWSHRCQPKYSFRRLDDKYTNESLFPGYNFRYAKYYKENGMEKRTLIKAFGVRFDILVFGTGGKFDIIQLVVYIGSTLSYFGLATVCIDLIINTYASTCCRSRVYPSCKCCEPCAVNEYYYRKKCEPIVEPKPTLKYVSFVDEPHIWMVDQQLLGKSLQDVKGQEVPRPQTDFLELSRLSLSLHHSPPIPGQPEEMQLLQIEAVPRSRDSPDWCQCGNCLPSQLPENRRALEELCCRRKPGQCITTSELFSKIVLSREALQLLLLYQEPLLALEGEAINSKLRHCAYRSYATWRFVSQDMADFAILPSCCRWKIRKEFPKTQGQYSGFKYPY
Protocol: as §2
ATP was measured in the custom-made luminometer described by Rizzuto and co-workers (Brini et al., 1999; Jouaville et al., 1999). […] Light emission was detected by a Thorn EMI photon counting board installed in an IBM-compatible computer. […] Alternatively, ATP was measured in the supernatants using soluble luciferase in a Firezyme luminometer as previously described (Baricordi et al., 1999; Solini et al, 2004; Zanovello et al., 1990). […]

HEK293-pmeLUC cells = assay type: cell-based; conditions: HEK293-pmeLUC cells (no P2X7R)
Protocol: as §2
(§7) ATP was measured in the custom-made luminometer described by Rizzuto and co-workers (Brini et al., 1999; Jouaville et al., 1999). […] Light emission was detected by a Thorn EMI photon counting board installed in an IBM-compatible computer. […] Alternatively, ATP was measured in the supernatants using soluble luciferase in a Firezyme luminometer as previously described (Baricordi et al., 1999; Solini et al, 2004; Zanovello et al., 1990).

native P2X7R = molecular target: T4, native P2X7R (Homo sapiens, UniProt Q99572); assay: ATP release from ACN neuroblastoma cells transfected with pmeLUC; assay type: cell-based; conditions: ACN neuroblastoma cells, FIG. 3E
T4 construct: the human ACN neuroblastoma, a cell line expressing the native P2X7R; endogenous in cells; host or cells: ACN human neuroblastoma cells, transiently transfected with pmeLUC as sensor
T4 sequence (Q99572 1-595): T2 sequence (Q99572 1-595)
Protocol: HEK293 cells were cultured in DMEM-F12 (Sigma-Aldrich). Media were supplemented with 10% heat-inactivated FBS, 100 U/ml penicillin and 100 μg/ml streptomycin (Invitrogen corporation, San Giuliano Milanese, Italy). ACN neuroblastoma cells were cultured in DMEM supplemented with MEM non-essential amino acid solution 100× (Sigma-Aldrich). HEK293 cells were transfected with the calcium phosphate method. Cells transiently expressing the pmeLUC construct were assayed 36 hours after transfection. Clones stably expressing pmeLUC or the P2X7R were generated by culture of the transfected cells in the presence of G418 (0.8 mg/ml, added 48 hours after transfection) for 3 weeks. Stable P2X7- or pmeLUC-expressing clones were kept in the continuous presence of 0.2 mg/ml of G418 sulphate (Geneticin) (Calbiochem, la Jolla, Calif.). ACN cells were transfected with pmeLUC by lipofectamine (Invitrogen) and tested 24 hours after transfection. […]
as §7
Differences in basal levels of luminescence emission are neutralized by expressing luminescence as percentage increase over basal (FIG. 3B), however, the higher basal luminescence of HEK293-hP2X7/pmeLUC might reflect a real increased level of pericellular ATP compared to HEK293-pmeLUC, rather than a higher expression of pmeLUC. In this case, reporting luminescence as percent increase over basal would mask such a difference in the extracellular ATP concentration. To clarify this issue, total pmeLUC protein was measured by western blotting (FIG. 3C). […] To measure quantitatively surface pmeLUC expression, different clones were analyzed by FACS. […]

HEK293-hP2X7 cells = assay: Extracellular ATP in supernatants of HEK293-hP2X7 cells, soluble luciferase; assay type: cell-based; conditions: n=10, quiescent 220±34 nM
Protocol: as §1
(§8) As an independent proof that HEK293-P2X7 cells release a larger amount of ATP than mock-transfected HEK293 (HEK293-mock), extracellular ATP was measured in the supernatants using soluble luciferase. Quiescent HEK293-mock cells maintained an extracellular ATP concentration of 80±20 nM (n=12), compared to 220±34 nM (n=10) for HEK-hP2X7. […]

HEK293-mock cells = assay: Extracellular ATP in supernatants of HEK293-mock cells, soluble luciferase; assay type: cell-based
Protocol: as §1, §8

## Nc1ncnc2c1ncn2[C@@H]1O[C@H](COP(=O)(O)OP(=O)(O)O)[C@@H](O)[C@H]1O [ADP]
pmeLUC
  sensitivity of pmeLUC to other nucleotides: insensitive

## Nc1ncnc2c1ncn2[C@@H]1O[C@H](COP(=O)(O)OP(=O)(O)OP(=O)(O)O)[C@@H](O)[C@H]1O [ATP]
Human P2X7R; HEK293 cells transfected with human P2X7R, FIG. 4B
  ATP concentration at which luminescence increase over control cells is detectable: higher than 100 μM
[1]
  photon emission by the pmeLUC probe on addition of outer ATP: proportional to ATP concentration applied
pmeLUC; luminescence percent increase over basal
  threshold of pmeLUC for ATP (affinity): about 10 μM
J774 macrophage cells
  photon emission by the pmeLUC probe on addition of outer ATP: proportional to ATP concentration applied
Rat P2X7R; HEK293 cells transfected with rat P2X7R, FIG. 4A
  ATP concentration at which extra-increase in luminescence over control cells is detectable: 10 to 50 µM

## Nc1ncnc2c1ncn2[C@@H]1O[C@H](COP(=O)(O)OP(=O)(O)OP(=O)(O)O)[C@@H](OC(=O)c2ccc(C(=O)c3ccccc3)cc2)[C@H]1O [BzATP, Benzoyl ATP]
Human P2X7R; HEK293-hP2X7/pmeLUC cells
  luminescence increase on addition of BzATP: large luminescence increase
  peak ATP concentration from calibration of BzATP triggered luminescence increase: about 250 μM
HEK293-pmeLUC cells
  luminescence increase on addition of BzATP: not
Native P2X7R
  ATP release induced by BzATP: large ATP release
HEK293-hP2X7 cells
  extracellular ATP level in supernatants after addition of BzATP: about 400±55 nM
HEK293-mock cells
  effect of BzATP on extracellular ATP in supernatants: no effect
Rat P2X7R; HEK293-rP2X7/pmeLUC cells (not shown)
  luminescence increase on addition of BzATP: large luminescence increase

## Nc1nc2c(ncn2[C@@H]2O[C@H](COP(=O)(O)OP(=O)(O)OP(=O)(O)O)[C@@H](O)[C@H]2O)c(=O)[nH]1 [GTP]
pmeLUC
  sensitivity of pmeLUC to other nucleotides: insensitive
